# Data reported in a melting point compilation (Tetko et al.; mined from patent text by program, amines drawn as free bases though some values may be those of a salt).
row,Structure (SMILES),melting point [°C]
1,CC(C)(c1ccc(OC#N)cc1)c1ccc(OC#N)cc1,82
2,CCCCCCCCCCCCCc1cc(C(=O)OCCC)c[nH]1,51 to 52
3,Nc1ccc2cccc(Nc3cc(-c4ccc(C(F)(F)F)cc4)ncn3)c2n1,211 to 213
4,CC(Oc1cc(F)cc(F)c1)C1=NCCN1 (configuration not stated),134
5,CSc1ncc(Cc2ccncc2)c(=O)[nH]1,179 to 182
6,CCCCS(=O)(=O)c1c(-c2ccccc2)nn(C)c1-c1ccccc1,92.5 to 93
7,O=Cc1c[nH]c2ccc(C(F)(F)F)cc12,242 to 243
8,CCOC(=O)CCn1cc(CN(C)C)n(C2CCc3ccccc3C2)c1=S (configuration not stated),128 to 130
9,"Fc1cc(F)c2c(c1)C(n1cc[nH]c1=S)CC2 (single isomer, unassigned; (+))",191 to 193
10,Cc1cccc(Nc2ccccc2C(=O)N(C)O)c1C,70 to 71
11,N=C(N)NC(=O)c1cn([C@H](CO)CCc2ccccc2)cn1,111 to 113
12,CS(=O)(=O)n1cc(-c2ccccc2)c(=O)n1-c1ccccn1,112 to 114
13,CC(CN(C)S(C)(=O)=O)n1nnc2cc3c(=O)n(C4CC4)nnc3cc2c1=O (configuration not stated),170 to 172
14,CCc1cc(Cl)c(-n2ncc(C#N)c2N)c(Cl)c1,189 to 190
15,CCCCN(Cc1ccc(-c2ccccc2-c2nnn[nH]2)cc1)c1ncn(C)c1C(=O)OCC,203 to 204
16,CCC(C)C(CO)NC(=O)CC(O)C(CC(C)C)NC(=O)C(Cc1cccs1)NC(=O)C(Cc1cccc2ccccc12)NC(=O)OCc1ccccc1 (mixture of isomers),160 to 162
17,Cc1oc(-c2ccccc2)nc1COc1ccc(CO)nc1,125 to 126
18,CCOC(=O)c1ncn2c1CN=C(c1ccccc1F)c1cc([N+](=O)[O-])ccc1-2,228 to 231
19,Fc1ccc(C(CCCN2CCC(c3n[nH]c4ccccc34)CC2)c2ccc(F)cc2)cc1,154 to 156
20,COc1ccc(OC)c(C2CC=CCC2[N+](=O)[O-])c1 (configuration not stated),73 to 75
21,COc1cc(Br)ccc1C(C)CC(=O)C(=O)Nc1ccc2c(c1)COC2=O (configuration not stated),136 to 140
22,O=Cc1cc(O)c(O)cc1Cl,217 to 218
23,CC(=O)Nc1cccc(C=O)c1,68 to 70
24,CCOC(=O)CN1CC(=O)N(C)c2ccc(N)cc2C1=O,118 to 119
25,CN1CC(CCCl)Sc2ncccc2C1=S (configuration not stated),160 to 162
26,Cc1oc(-c2cccc(-c3ccccc3)c2)nc1CCOc1cccc(OC(C)(C)C(=O)O)c1,67 to 71
27,NC(=O)NS(=O)(=O)c1ccccc1Cl,160 to 163

row,Structure (SMILES),melting point [°C]
1,Cc1cc2c(N3CCCC3C)ccc(C#N)c2o1 (configuration not stated),78 to 80
2,O=C(CC12CC3CC(CC(C3)C1)C2)Nc1cccc2[nH]ccc12,211 to 213
3,Oc1ccc2nc(-c3ccc(O)c4ccccc34)oc2c1,194 to 196
4,O=C(c1ccc(OC[C@H](O)CO)cc1)c1ccc([N+](=O)[O-])cc1,104 to 105
5,CCOC(=O)C(Cc1ccc(OCCN2CCC(C)(C)c3cc(C(=NOC)c4ccccc4)ccc32)cc1)Nc1ccccc1C(=O)c1ccccc1 (configuration not stated),78 to 80
6,CN(C1CCN(CCC(F)(F)F)CC1)S(=O)(=O)c1ccc(Nc2nccc(Nc3ccc(F)c(F)c3)n2)cc1,202 to 203
7,Nc1cc(-n2cc(C(=O)O)c(=O)c3cc(F)c(NCC(O)C(F)(F)F)c(Cl)c32)c(F)cc1F (configuration not stated),134 to 138
8,C[C@]1(COC(=O)N2CCc3cc(Cl)ccc32)Cn2cc([N+](=O)[O-])nc2O1,189 to 191
9,CC1(C)SC(=S)N(c2ccccn2)C1O (configuration not stated),80
10,O=c1ccn2c(c1O)C(c1ccc(Cl)cc1)OCC2 (configuration not stated),211 to 214
11,CSc1ccc(-c2csc3ccc(-c4nnc(C)o4)cc23)cc1,198 to 199
12,CC(C)(O)[C@@H](N)c1cccc2ccccc12,86 to 87
13,CC1Cc2ccc(Cl)cc2C(c2ccc(N)cc2)=NN1C(=O)C(F)(F)F (configuration not stated),165 to 167
14,COc1cccc(OC(c2ccccc2)C(O)C(=O)NC(C)C)c1 (configuration not stated),118 to 120
15,C=Cc1ccc(-c2ncccc2S(=O)(=O)Nc2ncc(C)nc2OC)cc1,110 to 112
16,CCOC(=O)c1cc(O)n(C)n1,151 to 153
17,CCOC(=O)C(=O)Nc1ccc(NS(C)(=O)=O)cc1,136 to 139
18,COc1ccc(C(O)CCc2ccccc2O)cc1 (configuration not stated),114 to 116
19,"CN1C(=O)CCC2(C)c3ccc(Sc4ccc5ccccc5n4)cc3CCC12 (single isomer, unassigned; (+))",175 to 177
20,CCOC(=O)CCCN1CCC2(CC1)CN(c1ccc(C#N)cc1)C(=O)O2,78 to 80
21,Cc1csc2ccc3[nH]c4c(c3c12)CN(Cc1ccccc1)CC4,93
22,O=C1NC(=O)C(c2ccc(-c3ccccc3)s2)O1 (configuration not stated),233 to 235
23,COc1cc(C(=O)N2Cc3ccc(C(=O)NCc4ccccc4C(F)(F)F)n3Cc3ccccc32)ccc1-c1ccccc1C,165 to 167
24,C=CCc1cc(C(C)=O)c(O)cc1OCCCCCCCC#N,46 to 48
25,COc1ccc2c(c1)C(=O)C(=O)C1=C2OC2(CCN(CC(O)Cc3ccccc3)CC2)CS1 (configuration not stated),146 to 147
26,O=c1c2ccccc2nc(CCl)n1-c1ccccc1,152 to 153

# Other lines, results leading:
row,melting point [°C],Structure (SMILES)
1,72 to 74,CC#CCOc1ccc(S(=O)(=O)NC(CO)C(=O)OC)cc1 (configuration not stated)
2,144,O=C(Nc1ccc(Cl)c(Cl)c1)c1cc(C(F)(F)F)cc([N+](=O)[O-])c1N1CCCCC1
3,128 to 129,COC(=O)c1cc2ccc(OCCN(C)C(=O)OC(C)(C)C)cc2oc1=O
4,124,CCOc1ccc(C2=NC[C@@H](O)[C@H](c3ccccc3)O2)cc1 (racemic)
5,88 to 91,Cc1nc2sccn2c1-c1ccc(C#N)cc1
6,165 to 166,CCCCCOc1cc(C(=O)O)c2c(c1)C(=O)CC2
7,121 to 123,CCOC(=O)CC(NC(=O)C=CS(=O)c1ccccc1)C(=O)OCC (configuration not stated)
8,105,C#CCN1CCCc2ccc(OC(=O)Nc3ccccc3Br)cc21
9,153 to 154,Cc1cc(C(=O)NCCO)ncc1C(c1cc(F)ccc1F)S(=O)(=O)c1ccc(F)cc1 (configuration not stated)
10,85 to 88,Cc1cccc(C)c1OC(C)C(=O)OC1CC(O)C=C2C=CC(C)C(CCC3CC(O)CC(=O)O3)C21 (mixture of isomers)
11,205 to 210,CC(C)(C)[Si](OCC1CSC2=C(O1)c1ccccc1C(=O)C2=O)(c1ccccc1)c1ccccc1 (configuration not stated)
12,> 250,Cc1cccc(C)c1NC(=O)c1ccc(CN2C(=O)C3(COc4cc5c(cc43)CCO5)c3ccccc32)cc1 (configuration not stated)
13,157 to 159,COC(=O)c1ccc(/C=C/c2ccc(SC)cc2)nc1
14,132 to 135,CCOC(=O)c1nc(Cl)n2c1c(Cl)nc1ccccc12
15,139,O=C(O)Cc1ccc(OCc2ccccc2)cc1OCc1ccccc1
16,23,COC(=O)CCCS(=O)(=O)c1ccc(C)cc1
17,130 to 135,CC(C)(C)c1nc(C=CC(COc2ccccc2)=NO)nc(C(C)(C)C)c1O
18,68 to 70,CCN(CC)Cc1nc(Cn2cnc3c2c(=O)n(C)c(=O)n3C)no1
19,103 to 106,CCCc1c(OCCCOc2cc(OCC(=O)OC)ccc2C(C)=O)ccc(C(C)=O)c1O
20,155 to 158,O=C(c1ccc(-c2cccc3ccccc23)nc1)N1Cc2cccn2Cc2ccccc21
21,113 to 115,COC(=O)C1(CCCN2CCN(c3ccccc3)CC2)Oc2ccccc2OCC1O (configuration not stated)
22,293 to 294,COc1ccc(-c2[nH]c3cn[nH]c(=O)c3c2Cl)cc1OC1CC1

row,melting point [°C],Structure (SMILES)
1,84 to 85,CCOc1nn(Cc2ccc(Cl)cc2Cl)cc1CCCOc1cc(CCC(=O)O)n(Cc2ccccc2)n1
2,106,COCCNc1cc(NCCOC)c([N+](=O)[O-])cc1Cl
3,33.5 to 35,CCOC(=O)COC(=O)CN1CCCCCC1=O
4,125 to 127,CCc1cc(C(=O)OC)c(Nc2ccc(OC)cc2[N+](=O)[O-])s1
5,76 to 79,CCOC(=O)C(CCCc1ccccc1CP(=O)(OCC)OCC)(NC(C)=O)C(=O)OCC
6,249 to 250,CNC(=O)C1(Oc2ccc3c(c2)c(-c2cc4cccnc4[nH]2)cn3C)CCC1
7,90 to 92,COC(=S)c1cc(C)nc(Cl)n1
8,300,O=C(NN=Cc1ccc([N+](=O)[O-])o1)c1ncn2ccccc12
9,80 to 81,CCOC(=O)c1c2c3c(cccc3n1C)CCC2
10,150,CCOc1ccc2c(c1)C(C)(c1cc(NC(=O)CN(C)C)ccc1Cl)C(=O)N2S(=O)(=O)c1ccc(C(=O)NC(C)(C)C)cc1OC (configuration not stated)
11,144 to 145,COc1cc(COc2nn(Cc3ccccc3)cc2C(C)=O)ccc1OCc1nc(-c2ccco2)oc1C
12,81,CC(=O)NCCCNC(=O)c1cc2c(ccc3cnn(C[C@H](C)N)c32)o1
13,59 to 60,CCCCCCCOC(=O)C(=C1NCCCS1)[N+](=O)[O-]
14,290 to 292,O=C(O)c1ccc(C#Cc2ccc(OCCCO)c(C34CC5CC(CC(C5)C3)C4)c2)cc1
15,201 to 205,CCOC(=O)c1cn(-c2ncc(F)c(NC(C)(C)C)n2)c2c(Cl)c(F)c(F)cc2c1=O
16,80 to 85,C=CCc1c(OCC(=O)O)ccc2c(CCc3nc(-c4ccc(Cl)cc4Cl)oc3C(C)C)noc12
17,172 to 174,CCn1cc(-c2ccc([C@H](C)N3CC[C@](CC(C)(C)O)(c4ccc(F)cc4)OC3=O)cc2)ccc1=O
18,174 to 175,O=C(O)COc1cc(-c2c3ccccc3c(Br)c3sc4ccccc4c23)ccc1Br
19,78,COc1ccc(CN(CCN(C)CCCCCCNC(=S)NCCSCc2csc(NC(=N)N)n2)c2ccccn2)cc1
20,93 to 95,COc1ccc(C(C#N)=C(C)C)cc1OC
21,150 to 160,COC(=O)C1Cc2c([nH]c3ccccc23)C(c2cccc(Cl)c2)N1 (configuration not stated)
22,122 to 124,COC(=O)c1cccc2c1Nc1ccc(I)cc1C2
